Experimental data published in ChEMBL document CHEMBL3600303, “The N-Terminal T-T Motif of a Third-Generation HIV-1 Fusion Inhibitor Is Not Required for Binding Affinity and Antiviral Activity” (J Med Chem, 2015).

What was measured:
[1] = test system: Human immunodeficiency virus 1; assay: Antiviral activity against HIV1 NL4-3 pseudovirus infected in human TZM-bl cells assessed as inhibition of viral entry into cells after 48 hrs by single-cycle infection assay; assay type: functional, organism-based; settings: Human immunodeficiency virus 1, NL4-3, TZM-bl
[2] = target: Envelope glycoprotein gp160 (Human immunodeficiency virus type 1 group M subtype B (isolate HXB2)(HIV-1)) (UniProt P04578); assay: Binding affinity to HIV-1 HXB2 gp41 N-terminal heptad repeat assessed as thermostability of compound after 30 mins by CD spectroscopic analysis; settings: Human immunodeficiency virus 1
[3] = test system: Human immunodeficiency virus 1; assay: Antiviral activity against wild type HIV1 NL4-3 infected in human TZM-bl cells assessed as inhibition of viral replication after 2 days by luciferase reporter gene assay; assay type: functional, organism-based; settings: Human immunodeficiency virus 1, NL4-3, TZM-bl, 48 h
[4] = target: Envelope glycoprotein gp160 (Human immunodeficiency virus type 1 group M subtype B (isolate HXB2)(HIV-1)) (UniProt P04578); assay: Binding affinity to HIV-1 HXB2 gp41 N-terminal heptad repeat assessed as thermostability of compound at 10 uM after 30 mins by CD spectroscopic analysis; settings: Human immunodeficiency virus 1

| Substance | IC50 [1] [nM] | Tm [2] [°C] | IC50 [3] [nM] | Tm [4] [°C] |
| --- | --- | --- | --- | --- |
| H-TTWEAWDRAIAEYAARIEALIR-OH | 955 | 59.1 |  |  |
| H-TTWEEWDKKIEEYTKKIEELI-OH | 18.9 |  | 17.4 | 66.2 |
